US4552969A, “3-Alkanoyl benzothiazoline compounds useful for treating cardiovascular disease” (Santen Pharmaceutical Co., Ltd., priority 1981, dated 1985)
Counter-ions that a name gives are not always drawn.

How the values were obtained:
platelet aggregation = experiment: Pharmacological test II: anti-aggregatory activity, collagen or ADP induced platelet aggregation in vitro (platelet rich plasma); format: cell-based; conditions: Oryctolagus cuniculus, 50% inhibition of control response, rabbit PRP, 1 minute preincubation at 37° C., collagen (3 μg/ml) or ADP (3 μM), inducer not given
Excerpt: Blood platelet plays an important role only in hemostasis but also in thrombosis. Platelet hyperaggregability leads to an inclease in the number of circulating platelet aggregates, which may contribute toward the development of cardiac arrythmias, cardiac arrest or myocardial infarction. These cardiovascular diseases can be prevented by inhibition of platelet aggregation.
Blood was obtained from an anesthetized rabbit using 0.1 volumes of 3.8% sodium citrate as anticoagulant. Platelet rich plasma(PRP) was isolated by centrifugation at 650 rpm for 10 minutes at room temperature. After preincubation of PRP (0.25 ml) with various concentrations of test compounds (14 μl) for 1 minute at 37° C., collagen (3 μg/ml:final concentration) or ADP (3 μM:final concentration) was added to induce aggregation and the aggregation profiles were monitored with RIKADENKI six-channel aggregometer. The control experiment contained saline instead of test compound.
The anti-aggregatory activity was represented by the concentration of test compound which elicited 50% inhibition of control response.

guinea-pig teania coli = experiment: Pharmacological test I: calcium-antagonistic activity, inhibition of Ca++-evoked contraction of isolated taenia coli; format: cell-based; conditions: Cavia porcellus, 5 min; 50% inhibition of contraction evoked by CaCl2 (3×10^-4 M); Ca++-free-high-K Krebs solution, 32° C., 5 minutes pre-exposure
Method: The action potentials on the smooth muscles of uterus, teania coli and portal vein are dependent on calcium ion, and therefor these smooth muscle preparations are useful for screening of calcium antagonists. We measured the calcium-antagonistic activity of the compounds by the method using guinea-pig teania coli preparation.
Isolated guinea-pig teania coil was suspended in a 20 ml organ bath with Krebs solution at 32° C. and bubbled with 5% carbon dioxide in oxygen. After equilibration, the muscle was washed with Ca^++ -free Krebs solution, and when the muscle had relaxed to basal level, it was suspended in Ca^++ -free-high-K Krebs solution.
The muscle was exposed to test compounds for 5 minutes before addition of CaCl2, and the contraction evoked by CaCl2 (3×10^-4 M) was recorded isotonically. The calcium-antagonistic activity was represented by the concentration of test compound which elicited 50% inhibition of Ca^++ -evoked contraction (IC50).

[1] = Acute toxicity test, oral; conditions: rat, in vivo, male ddy-SLC, 0.5% tragacanth suspension
Method: Male ddy-SLC strain rats (4 weeks of age, weighing 19-21 g) were placed in a breeding room of constant temperature and huminity (23±1° C., 55±5%) and fed freely pellet diet and water ad. libitum for a week. Rats showing normal growth were selected for the test.
Test compounds are suspended in 0.5% tragacanth suspention and administered orally in a dose of 0.5 ml/20 g body weight.

Structure (SMILES)	IC50 (platelet aggregation) [nM]	IC50 (guinea-pig teania coli) [nM]	LD50 [1] [mg/kg]
CC(=O)N1c2ccccc2SC1c1ccccc1OCCCN(C)C1CCCCC1 (centres unmarked) [Compound 8]	4600	–	–
COc1ccc(OCCCCCN(C)C2CCCCC2)c(C2Sc3ccccc3N2C(C)=O)c1 (centres unmarked) [Compound 21, 3-Acetyl-2-[2-[5-(N-cyclohexyl-N-methlamino)pentyloxy]-5-methoxyphenyl]benzothiazoline fumarate]	1300	–	–
COc1ccc(OCCCCCCN(C)C2CCCCC2)c(C2Sc3ccccc3N2C(C)=O)c1 (centres unmarked) [Compound 22]	1100	–	–
COc1ccc(OCCCCN(C)CCc2ccc(OC)c(OC)c2)c(C2Sc3ccccc3N2C(C)=O)c1 (centres unmarked) [Compound 23]	–	660	–
CC(=O)N1c2ccccc2SC1c1cc([N+](=O)[O-])ccc1OCCCN(C)C1CCCCC1 (centres unmarked) [Compound 29]	3200	–	> 2000
CC(=O)N1c2ccccc2SC1c1cc([N+](=O)[O-])ccc1OCCCNCc1cccnc1 (centres unmarked) [Compound 33]	–	520	–
COc1ccc(OCCCCN2CCN(CCc3ccc(OC)c(OC)c3)CC2)c(C2Sc3ccccc3N2C(C)=O)c1 (centres unmarked) [Compound 63]	–	640	≥ 3000
COc1ccc(OCCCCN2CCN(CCc3cc(OC)c(OC)c(OC)c3)CC2)c(C2Sc3ccccc3N2C(C)=O)c1 (centres unmarked) [Compound 67]	–	470	> 1000

Now from value to compound, other results behind:

IC50 (platelet aggregation) [nM]	Structure (SMILES)	IC50 (guinea-pig teania coli) [nM]	LD50 [1] [mg/kg]
3100	COc1cc(C2Sc3ccccc3N2C(C)=O)cc(OC)c1OCCCN(C)C1CCCCC1 (centres unmarked) [Compound 54]	–	–
2000	COc1cc(C2Sc3ccccc3N2C(C)=O)cc(OC)c1OCCCCN(C)C1CCCCC1 (centres unmarked) [Compound 55]	–	–
2700	CC(=O)N1c2ccccc2SC1c1cc([N+](=O)[O-])ccc1OCCCN1CCC(Cc2ccccc2)CC1 (centres unmarked) [Compound 95]	–	–
